{"source": "ChEMBL document CHEMBL1255340", "about": "“In vitro activities of the Rx-01 oxazolidinones against hospital and community pathogens” (2008)", "type_in_all_cases": "functional", "key": {"Metamycoplasma hominis": {"test_system": "Metamycoplasma hominis", "test": "Antimicrobial activity against Mycoplasma hominis isolated from human respiratory tract by broth microdilution method"}, "Chlamydia pneumoniae": {"test_system": "Chlamydia pneumoniae", "test": "Antimicrobial activity against Chlamydophila pneumoniae isolated from human respiratory tract by broth microdilution method"}, "Chlamydia trachomatis": {"test_system": "Chlamydia trachomatis", "test": "Antimicrobial activity against Chlamydia trachomatis isolated from human respiratory tract by broth microdilution method"}}, "note": "Where “and” joins values, the source holds several entries; their conditions need not be identical. Equal values may be shown once."}
{"smiles": "CC[C@H]1OC(=O)[C@H](C)[C@@H](O[C@H]2C[C@@](C)(OC)[C@@H](O)[C@H](C)O2)[C@H](C)[C@@H](O[C@@H]2O[C@H](C)C[C@H](N(C)C)[C@H]2O)[C@](C)(O)C[C@@H](C)C(=O)[C@H](C)[C@@H](O)[C@]1(C)O", "note": "[ERYTHROMYCIN]", "values": [{"measurement": "MIC", "setting": "Metamycoplasma hominis", "value": "16 µg/mL and 32 µg/mL"}, {"measurement": "MIC", "setting": "Chlamydia pneumoniae", "value": 0.5, "unit": "µg/mL"}, {"measurement": "MIC", "setting": "Chlamydia trachomatis", "value": "0.12 µg/mL and 0.25 µg/mL"}]}
